These results are taken from EPA's ToxValDB 9.5 (doi:10.2903/j.efsa.2006.62r).

In brackets after ≈: the same amount, converted by molar mass.

The test system of data set [1] is Folsomia candida. The following applies: chronic/long-term; reproduction.
Data set [2] relates to Bibionidae. The following applies: chronic/long-term; other.
In data set [3] the test system is Colinus virginianus.
Data set [4] concerns Lepomis macrochirus. Conditions: acute; duration: 96 hours; mortality.
In data set [5] the test system is Daphnia magna. Conditions: chronic/long-term; growth.
In data set [6] the test system is Oryctolagus sp. The following applies: developmental; development.
Data set [7] concerns Oncorhynchus mykiss. The following applies: chronic/long-term; duration: 91 days; development.
Data set [8] has as its system Rattus norvegicus. The following applies: acute; M; mortality.
For data set [9], the system named is Apis mellifera. The following applies: acute, mortality.
Data set [10] deals with Hypoaspis aculeifer. The following applies: chronic/long-term; duration: 14 days; mortality.
The test system of data set [11] is Tagia sp.
Data set [12] has as its system Canidae. Conditions: oral, Dog Other, neurology.
Data set [13] has as its system Aphidius rhopalosiphi. Kind of data set: LR50; higher = less toxic. The following applies: not reported; mortality.

As to `CCOP(=O)(NC(C)C)Oc1ccc(S(C)(=O)=O)c(C)c1` (stereo not given) [Fenamiphos sulfone], the NOEC in [1] was 3.75 mg/kg.

Regarding `CCOP(=O)(NC(C)C)Oc1ccc(S(C)=O)c(C)c1` (stereo not given) [Fenamiphos sulfoxide], the NOEC in data set [1] amounted to 2 mg/kg; in data set [2], 0.058 mg/L.

As a reminder, the NOAEL is the highest dose or exposure tested at which no adverse effect was seen. Take `CCOP(=O)(NC(C)C)Oc1ccc(SC)c(C)c1` (stereo not given) [Fenamiphos]: the LEL in data set [3] (acute, oral, M) was 0.8 mg/kg-day. Besides, the NOEC in [3] (reproduction developmental, M/F) was 0.2 mg/kg-day; in data set [5] it was 0.00012 mg/L; in [1], 0.313 mg/kg; in data set [7], 0.0038 mg/L; in data set [10] it was 1.33 mg/kg; in [11] (chronic/long-term, duration: 8 weeks, reproduction), below 6000 g/ha. Besides, the LEC in [3] (short-term, oral, diet) is 6 mg/kg-day. In addition, the LC50 in [4] was 9.3 ng/mL (≈ 0.0307 µM); in data set [11] (acute, duration: 14 days, mortality) it was 888 mg/kg. The NOAEL came out at 0.3 mg/kg-day in data set [6]; 0.25 mg/kg-day in [12] (acute); 0.083 mg/kg-day in [12] (chronic, duration: 1 years). The LD50 in data set [8] is 6 mg/kg; in [9] (duration: 48 hours, dermal), 0.28 µg/piece; in data set [9] (oral, unspecified) it was 0.45 µg/piece. Besides, in data set [13], the LR50 is 0.175 g/ha.
